Legend:
[1] = tested on: Renilla luciferase HCV replicon cells (2209-23); experiment: Renilla luciferase Assay (HCV replicon); assay type: cell-based, HCV; human hepatoma Huh7 cells; settings: 72 h; replicon cell line 2209-23, three days incubation; read-out: R. luciferase Activity IC50

| SMILES | melting point | IC50 [1] [nM] |
| --- | --- | --- |
| CC(C)(C)[C@H]1C(O)=C(C2=NS(=O)(=O)c3c(CNS(N)(=O)=O)cccc32)C(=O)N1Cc1ccc(F)cc1 [II-41, Amino-sulfonic acid {3-[(S)-5-tert-butyl-1-(4-fluoro-benzyl)-4-hydroxy-2-oxo-2,5-dihydro-1H-pyrrol-3-yl]-1,1-dioxo-1H-1λ^6-benzo[d]isothiazol-7-ylmethyl}-amide] |  | 58 |
| Cc1cc(CN2C(=O)C(C3=NS(=O)(=O)c4c(CNS(C)(=O)=O)cccc43)=C(O)C2C(C)(C)C)ccc1F (centres unmarked) [II-38, N-{3-[5-tert-Butyl-1-(4-fluoro-3-methyl-benzyl)-4-hydroxy-2-oxo-2,5-dihydro-1H-pyrrol-3-yl]-1,1-dioxo-1H-1λ^6-benzo[d]isothiazol-7-ylmethyl}-methanesulfonamide] |  | 35 |
| CC(C)(C)[C@H]1C(O)=C(C2=NS(=O)(=O)c3c(OCS(C)(=O)=O)cccc32)C(=O)N1Cc1ccc(F)cc1 [II-81, (S)-5-tert-Butyl-1-(4-fluoro-benzyl)-4-hydroxy-3-(7-methanesulfonylmethoxy-1,1-dioxo-1H-1λ^6-benzo[d]isothiazol-3-yl)-1,5-dihydro-pyrrol-2-one] | 143 to 151 °C | 235 |
| CC(C)(C)[C@H]1C(O)=C(C2=NS(=O)(=O)c3c(OCS(N)(=O)=O)cccc32)C(=O)N1Cc1ccc(F)cc1 [II-64, {3-[(S)-5-tert-Butyl-1-(4-fluoro-benzyl)-4-hydroxy-2-oxo-2,5-dihydro-1H-pyrrol-3-yl]-1,1-dioxo-1H-1λ^6-benzo[d]isothiazol-7-yloxy}-methanesulfonamide] |  | 228 |
| Cc1ccc(CN2C(=O)C(C3=NS(=O)(=O)c4ccccc43)=C(O)[C@@H]2C(C)(C)C)cc1 | 93 to 107 °C |  |
| CC(C)C[C@H]1C(O)=C(C2=NS(=O)(=O)c3ccccc32)C(=O)N1Cc1ccc(F)cc1 | 200 °C (dec.) |  |
| CN(c1ccc(F)cc1)c1nc(C2=NS(=O)(=O)c3ccccc32)c(O)c2ccccc12 | 215 to 217 °C |  |
| O=C1C(C2=NS(=O)(=O)c3ccccc32)=C(O)[C@H](c2ccccc2)N1Cc1ccc(F)cc1 | 145 to 155 °C |  |
| O=S1(=O)N=C(c2nc(Cc3ccc(F)cc3)c3ccccc3c2O)c2cccc(-c3ccc(F)cc3)c21 | > 275 °C |  |
| CS(=O)(=O)Nc1cccc(-c2cccc3c2S(=O)(=O)N=C3c2nc(Cc3ccc(F)cc3)c3ccccc3c2O)c1 | > 275 °C |  |
| CS(=O)(=O)Nc1cccc2c1S(=O)(=O)N=C2c1nc(Cc2ccc(F)cc2)c2ccccc2c1O | > 275 °C |  |
| CC(C)(C)[C@H]1C(O)=C(C2=NS(=O)(=O)c3ccccc32)C(=O)N1Cc1ccccc1 | 170 to 179 °C |  |
| CC(C)(C)[C@H]1C(O)=C(C2=NS(=O)(=O)c3ccccc32)C(=O)N1CCC1CC1 | 135 to 140 °C |  |
| CC(C)(C)[C@H]1C(O)=C(C2=NS(=O)(=O)c3ccccc32)C(=O)N1CC1CCC1 | 69 to 78 °C |  |
| CC(C)CC1C(O)=C(C2=NS(=O)(=O)c3ccccc32)C(=O)N1Cc1ccc(F)cc1 (centres unmarked) | 200 °C (dec.) |  |
| CS(=O)(=O)Nc1ccc2c(c1)S(=O)(=O)N=C2c1nc(Cc2ccc(F)cc2)c2ccccc2c1O | > 275 °C |  |
| CC(C)(C)[C@H]1C(O)=C(C2=NS(=O)(=O)c3c(CNS(=O)(=O)N4CCNCC4)cccc32)C(=O)N1Cc1ccc(F)cc1.O=C(O)C(F)(F)F [II-91, Piperazine-1-sulfonic acid {3-[(S)-5-tert-butyl-1-(4-fluoro-benzyl)-4-hydroxy-2-oxo-2,5-dihydro-1H-pyrrol-3-yl]-1,1-dioxo-1H-1λ^6-benzo[d]isothiazol-7-ylmethyl}-amide; compound with trifluoro-acetic acid] | 95 to 115 °C | 143 |
| Cc1cc(CN2C(=O)C(C3=NS(=O)(=O)c4c(CN(C)S(C)(=O)=O)cccc43)=C(O)[C@@H]2C(C)(C)C)ccc1F [II-77, N-{3-[(S)-5-tert-Butyl-1-(4-fluoro-3-methyl-benzyl)-4-hydroxy-2-oxo-2,5-dihydro-1H-pyrrol-3-yl]-1,1-dioxo-1H-1λ^6-benzo[d]isothiazol-7-ylmethyl}-N-methyl-methanesulfonamide] |  | 129 |
| O=C1C(C2=NS(=O)(=O)c3ccccc32)=C(O)[C@H](Cc2ccccc2)N1Cc1ccc(F)cc1 | 85 to 92 °C |  |
| O=S1(=O)N=C(c2nc(Cc3ccc(F)cc3)c3ccc(F)cc3c2O)c2cccc(Cl)c21 | > 275 °C |  |
| Cc1ccc2c(Cc3ccc(F)cc3)nc(C3=NS(=O)(=O)c4ccccc43)c(O)c2c1 | > 275 °C |  |
| Cc1cc(CN2C(=O)C(C3=NS(=O)(=O)c4c(CNS(=O)(=O)N5CCC(N)C5)cccc43)=C(O)[C@@H]2C(C)(C)C)ccc1F.O=C(O)C(F)(F)F (some centres unmarked) | 128 to 134 °C |  |
| COc1ccc(-c2cccc3c2S(=O)(=O)N=C3c2nc(Cc3ccc(F)cc3)c3ccccc3c2O)cn1 | 194 to 196 °C |  |

Now from value to compound, other results behind:

| melting point | SMILES | IC50 [1] [nM] |
| --- | --- | --- |
| > 250 °C | CC(C)(C)[C@H]1C(O)=C(C2=NS(=O)(=O)c3c(CNS(=O)(=O)N4CC[C@H](O)C4)cccc32)C(=O)N1Cc1ccc(F)cc1 |  |
| 130 to 137 °C | CS(=O)(=O)NCc1cccc2c1S(=O)(=O)N=C2C1=C(O)[C@H](C2CCCCC2)N(Cc2ccc(F)cc2)C1=O |  |
| 98 to 99.8 °C | CCC(=O)N(Cc1cccc2c1S(=O)(=O)N=C2C1=C(O)[C@H](C(C)(C)C)N(Cc2ccc(F)c(C)c2)C1=O)S(C)(=O)=O |  |
| 155 to 165 °C | CNS(=O)(=O)COc1cccc2c1S(=O)(=O)N=C2C1=C(O)[C@H](C(C)(C)C)N(Cc2ccc(F)cc2)C1=O |  |
| > 250 °C | CC(C)(C)[C@H]1C(O)=C(C2=NS(=O)(=O)c3c(NCC(N)=O)cccc32)C(=O)N1Cc1ccc(F)cc1.N |  |
| 248 to 260 °C | CC(=O)N1CCN(S(=O)(=O)NCc2cccc3c2S(=O)(=O)N=C3C2=C(O)[C@H](C(C)(C)C)N(Cc3ccc(F)cc3)C2=O)CC1 |  |
| 175 to 192 °C | CC(C)(C)[C@H]1C(O)=C(C2=NS(=O)(=O)c3c(CNS(=O)(=O)c4cccs4)cccc32)C(=O)N1Cc1ccc(F)cc1 |  |
| 99 to 106 °C | CC(C)COc1cccc2c1S(=O)(=O)N=C2C1=C(O)[C@H](C(C)(C)C)N(Cc2ccc(F)cc2)C1=O |  |
| 109 to 115 °C | CN(C)S(=O)(=O)N(C)Cc1cccc2c1S(=O)(=O)N=C2C1=C(O)[C@H](C(C)(C)C)N(Cc2ccc(F)cc2)C1=O |  |
| 155 to 160 °C | CC(C)(C)[C@H]1C(O)=C(C2=NS(=O)(=O)c3c(N)cccc32)C(=O)N1Cc1ccc(F)cc1 |  |
| > 220 °C | CC(C)(C)C1C(O)=C(C2=NS(=O)(=O)c3ccccc32)C(=O)N1Cc1ccc(F)cc1 (centres unmarked) |  |
| > 275 °C | CC(C)(C)[C@H]1C(O)=C(C2=NS(=O)(=O)c3c2cccc3-c2ccc(=O)[nH]c2)C(=O)N1Cc1ccc(F)cc1 |  |
| 224 to 235 °C | COc1cccc2c1S(=O)(=O)N=C2C1=C(O)[C@H](C(C)(C)C)N(Cc2ccc(F)cc2)C1=O |  |
| 112 to 125 °C | CC(C)(C)[C@H]1C(O)=C(C2=NS(=O)(=O)c3c(CNS(=O)(=O)N4CCCC4)cccc32)C(=O)N1Cc1ccc(F)cc1 |  |
| > 250 °C | CC(C)(C)[C@H]1C(O)=C(C2=NS(=O)(=O)c3c2cccc3-c2cncnc2)C(=O)N1Cc1ccc(F)cc1 |  |
| 127 to 135 °C | CC(C)(C)[C@H]1C(O)=C(C2=NS(=O)(=O)c3c(CCS(C)(=O)=O)cccc32)C(=O)N1Cc1ccc(F)cc1 |  |
| 118 to 129 °C | CC(C)(C)[C@H]1C(O)=C(C2=NS(=O)(=O)c3c(CNS(=O)(=O)N4CCOCC4)cccc32)C(=O)N1Cc1ccc(F)cc1 |  |
| > 250 °C | COc1ncc(-c2cccc3c2S(=O)(=O)N=C3C2=C(O)[C@H](C(C)(C)C)N(Cc3ccc(F)cc3)C2=O)cn1 |  |
| > 210 °C | CNC(=O)COc1cccc2c1S(=O)(=O)N=C2C1=C(O)[C@H](C(C)(C)C)N(Cc2ccc(F)cc2)C1=O |  |
| > 250 °C | Cc1cc(CN2C(=O)C(C3=NS(=O)(=O)c4c(CNS(C)(=O)=O)cccc43)=C(O)C2c2ccc(F)cc2)ccc1F (centres unmarked) |  |
| 245 to 250 °C | CC(C)(C)[C@H]1C(O)=C(C2=NS(=O)(=O)c3c(NS(C)(=O)=O)cccc32)C(=O)N1Cc1ccc(F)cc1 |  |
| 74 to 86 °C | CC(C)(C)[C@H]1C(O)=C(C2=NS(=O)(=O)c3c(CNS(C)(=O)=O)cccc32)C(=O)N1CCC1CCCC1 |  |
